According to patent US10052381B2, “Classifiers of NF-κB pathway activation, devices, and methods of use thereof” (Emory University, priority 2012, dated 2018):

Columns and labels:
Format in all cases: cell-based
[1] = system: p100 gene classifier (noncanonical NF-κB pathway); assay: nCounter gene expression of the p100 classifier in DLBCL cell lines after drug treatment
Procedure: (§1) FIG. 5A illustrates that rituximab increases the apoptotic effect of doxorubicin when it is associated with suppression of p105 and induction of p100 classifier gene expression. Boxplot of p100 and p105 gene list illustrating the changes in gene expression in cells treated with doxorubicin ([…]) or rituximab ([…]). Cells were treated for 24 hours and the percent of live cells was measured using an ImageXpress 5000A Automated Acquisition and Analysis System (Molecular Devices), quantitating for Yo-pro-1 or PI-negative cells.
(§2) Given the capacity of the p105 classifier to predict a better response to RCHOP, the extent to which both classifiers were targeted by rituximab was investigated. In this investigation, the pathway dysregulation in a series of DLBCL cell lines and their changes in gene expression produced by DNA damaging agent (doxorubicin) and rituximab was measured. Based on their known baseline pattern of NF-κB activation, cell lines with enhanced (OCI-LY3, OCI-LY10) and suppressed (OCI-LY19 and OCI-LY2) NF-κB activation were selected for further testing (FIG. 5A).
(§3) nCounter Analysis System technology was developed by NanoString Technologies. In brief, nCounter™ assay was performed using 100 ng of total RNA or 2 μL of tissue lysate per replicate. The nCounter CodeSet for these studies contained probe pairs for 47 test and 3 control genes. All 47 genes and controls (n=3) were assayed simultaneously in multiplexed reactions. […] Subsequently, supervised complete linkage agglomerative hierarchical clustering analysis was performed.

[2] = system: p105 gene classifier (canonical NF-κB pathway); assay: nCounter gene expression of the p105 classifier in DLBCL cell lines after drug treatment
Procedure: as §1, §2, §3

[3] = system: DLBCL cell lines OCI-LY3, OCI-LY10, OCI-LY19 and OCI-LY2; assay: Apoptosis studies (Yo-pro-1 / PI negative live cells, ImageXpress); details: rituximab alone, titrating doses, 24 hours; all four cell lines
Procedure: To assess the consequence of rituximab's functional effects, the degree of apoptosis produced after treating all four cell lines with titrating doses of doxorubicin and rituximab was measured.
For apoptosis studies, 10^4 cells were treated with titrating doses of doxorubicin (titrating doses: […], Sigma) or rituximab (titrating doses: 1.5, 2.5, 5, 10 and 20 mg/mL, Biogen Idec Inc). Twenty four hours later cells were stained with Yo-pro-1 iodide and propidium Iodide (PI, both from Invitrogen). Live cells were measured using an ImageXpress 5000A Automated Acquisition and Analysis System (Molecular Devices), quantitating for Yo-pro-1 iodide and PI negative cells.

[4] = doxorubicin alone, OCI-LY3, OCI-LY10 cells
[5] = rituximab with doxorubicin, NF-κB activated cell lines (OCI-LY3, OCI-LY10)

| Molecule | gene expression of p100 target genes [1, 4] | gene expression of p105 target genes [2, 4] | change in expression of p100 classifier ([1]; OCI-LY2 and OCI-LY19 cells) | effect on doxorubicin's induction of p100 gene classifier [1, 5] | change in expression of p105 classifier ([2]; OCI-LY2 and OCI-LY19 cells) | effect on doxorubicin's induction of p105 gene classifier [2, 5] | degree of apoptosis [3] |
| --- | --- | --- | --- | --- | --- | --- | --- |
| COc1cccc2c1C(=O)c1c(O)c3c(c(O)c1C2=O)C[C@@](O)(C(=O)CO)C[C@@H]3O[C@H]1C[C@H](N)[C@H](O)[C@H](C)O1 [doxorubicin] | moderately induced | moderately induced |  |  |  |  |  |
| rituximab |  |  | minimally changed | enhanced the induction | minimally changed | suppressed doxorubicin's induction | did not induce significant apoptosis beyond background levels |
